Test results from US9512120B2, “Microbicidally active imidazopyridine derivatives” (Syngenta Participations AG, priority 2013, dated 2016).

What was measured:
Sclerotinia sclerotiorum = Sclerotinia sclerotiorum liquid culture (cottony rot / white mold); type: cell-based; settings: PDB, 24° C., 3-4 days after application, read-out: control of Sclerotinia sclerotiorum (inhibition of growth, photometric)
Description: Sclerotinia sclerotiorum (Cottony Rot/White Mold): Mycelia fragments of a newly grown liquid culture of the fungus were directly mixed into nutrient broth (PDB potato dextrose broth). After placing a (DMSO) solution of test compound into a microtiter plate (96-well format) the nutrient broth containing the fungal material was added. The test plates are incubated at 24° C. and the inhibition of growth was determined photometrically 3-4 days after application.

[1] = tested on: Puccinia recondita f. sp. Tritici; experiment: Puccinia recondita f. sp. tritici / wheat / leaf disc preventative (brown rust); type: in vivo; settings: foliar, wheat leaf segments cv Kanzler, inoculated 1 day after application, assessed 7-9 days after application, read-out: control of Puccinia recondita f. sp. Tritici (percent disease control compared to untreated)
Description: Puccinia recondita f. Sp. Tritici/Wheat/Leaf Disc Preventative (Brown Rust): Wheat leaf segments cultivated variety (cv) Kanzler were placed on agar in 24-well plates and sprayed with formulated test compound diluted in water at an application rate of 200 ppm. The leaf disks were inoculated with a spore suspension of the fungus 1 day after application. The inoculated leaf segments were incubated at 19° C. and 75% relative humidity under a light regime of 12/12 h (light/dark) in a climate cabinet and the activity of a compound was assessed as percent disease control compared to untreated when an appropriate level of disease damage appears in untreated check leaf segments (7-9 days after application).

[2] = tested on: Glomerella lagenarium (Colletotrichum lagenarium); experiment: Glomerella lagenarium (Colletotrichum lagenarium) / liquid culture (anthracnose); type: cell-based; settings: Colletotrichum orbiculare, PDB, 24° C., 3-4 days after application, read-out: control of Glomerella lagenarium (inhibition of growth, photometric)
Description: Glomerella lagenarium (Colletotrichum lagenarium)/Liquid Culture (Anthracnose): Conidia of the fungus from cryogenic storage were directly mixed into nutrient broth (PDB potato dextrose broth). After placing a DMSO solution of test compound into a 96-well microtiter plate at an application rate of 200 ppm, the nutrient broth containing the fungal spores was added. The test plates were incubated at 24° C. and the inhibition of growth is measured photometrically 3-4 days after application.

[3] = tested on: Thanatephorus cucumeris (Rhizoctonia solani); experiment: Thanatephorus cucumeris (Rhizoctonia solani) / liquid culture (foot rot, damping-off); type: cell-based; settings: PDB, 24° C., 3-4 days after application, read-out: control of Thanatephorus cucumeris (inhibition of growth, photometric)
Description: Thanatephorus cucumeris (Rhizoctonia solani)/Liquid Culture (Foot Rot, Damping-Off): Mycelia fragments of a newly grown liquid culture of the fungus are directly mixed into nutrient broth (PDB potato dextrose broth). After placing a DMSO solution of the test compounds into a 96-well microtiter plate at an application rate of 200 ppm, the nutrient broth containing the fungal material was added. The test plates were incubated at 24° C. and the inhibition of growth was determined photometrically 3-4 days after application.

[4] = tested on: Mycosphaerella graminicola (Septoria tritici); experiment: Mycosphaerella graminicola (Septoria tritici) / liquid culture (Septoria blotch); type: cell-based; settings: Zymoseptoria tritici, PDB, 24° C., 4-5 days after application, read-out: control of Mycosphaerella graminicola (inhibition of growth, photometric)
Description: Mycosphaerella graminicola (Septoria tritici)/Liquid Culture (Septoria Blotch): Conidia of the fungus from cryogenic storage were directly mixed into nutrient broth (PDB potato dextrose broth). After placing a DMSO solution of test compound into a 96-well microtiter plate at an application rate of 200 ppm, the nutrient broth containing the fungal spores was added. The test plates were incubated at 24° C. and the inhibition of growth was determined photometrically 4-5 days after application.

Pyrenophora teres = Pyrenophora teres / barley / leaf disc preventative (net blotch); type: in vivo; settings: foliar, barley leaf segments cv Hasso, inoculated two days after application, assessed 5-7 days after application, read-out: control of Pyrenophora teres (disease control compared to untreated)
Description: Pyrenophora Teres/Barley/Leaf Disc Preventative (Net Blotch): Barley leaf segments cv Hasso are placed on agar in a 24-well plate and sprayed with formulated test compound diluted in water at an application rate of 200 ppm. The leaf segments are inoculated with a spore suspension of the fungus two days after application of the test solution. The inoculated leaf segments are incubated at 20° C. and 65% relative humidity under a light regime of 12/12 h (light/dark) in a climate cabinet and the activity of a compound is assessed as disease control compared to untreated when an appropriate level of disease damage appears in untreated check leaf segments (5-7 days after application).

[5] = tested on: Botryotinia fuckeliana (Botrytis cinerea); experiment: Botryotinia fuckeliana (Botrytis cinerea) / liquid culture (gray mould); type: cell-based; settings: Vogels broth, 24° C., 3-4 days after application, read-out: control of Botryotinia fuckeliana (inhibition of growth, photometric)
Description: Botryotinia Fuckeliana (Botrytis cinerea)/Liquid Culture (Gray Mould): Conidia of the fungus from cryogenic storage were directly mixed into nutrient broth (Vogels broth). After placing a DMSO solution of test compound into a 96-well microtiter plate at an application rate of 200 ppm, the nutrient broth containing the fungal spores was added. The test plates were incubated at 24° C. and the inhibition of growth was determined photometrically 3-4 days after application.

[6] = tested on: Phaeosphaeria nodorum (Septoria nodorum); experiment: Phaeosphaeria nodorum (Septoria nodorum) / wheat / leaf disc preventative (glume blotch); type: in vivo; settings: Parastagonospora nodorum, foliar, wheat leaf segments cv Kanzler, inoculated 2 days after application, assessed 5-7 days after application, read-out: control of Phaeosphaeria nodorum (percent disease control compared to untreated)
Description: Phaeosphaeria nodorum (Septoria nodorum)/Wheat/Leaf Disc Preventative (Glume Blotch): Wheat leaf segments cv Kanzler were placed on agar in a 24-well plate and sprayed with formulated test compound diluted in water at an application rate of 200 ppm. The leaf disks are inoculated with a spore suspension of the fungus 2 days after application. The inoculated test leaf disks are incubated at 20° C. and 75% relative humidity under a light regime of 12/12 h (light/dark) in a climate cabinet and the activity of a compound is assessed as percent disease control compared to untreated when an appropriate level of disease damage appears in untreated check leaf disks (5-7 days after application).

Gaeumannomyces graminis = Gaeumannomyces graminis / liquid culture (take-all of cereals); type: cell-based; settings: PDB, 24° C., 4-5 days after application, read-out: control of Gaeumannomyces graminis (inhibition of growth, photometric)
Description: Gaeumannomyces graminis/Liquid Culture (Take-all of Cereals): Mycelial fragments of the fungus from cryogenic storage were directly mixed into nutrient broth (PDB potato dextrose broth). After placing a DMSO solution of test compound into a 96-well microtiter plate at an application rate of 200 ppm, the nutrient broth […], containing the fungal spores is added. The test plates were incubated at 24° C. and the inhibition of growth was determined photometrically 4-5 days after application.

[7] = tested on: Monographella nivalis (Microdochium nivale); experiment: Monographella nivalis (Microdochium nivale) / liquid culture (foot rot cereals); type: cell-based; settings: PDB, 24° C., 4-5 days after application, read-out: control of Monographella nivalis (inhibition of growth, photometric)
Description: Monographella nivalis (Microdochium nivale)/Liquid Culture (Foot Rot Cereals): Conidia of the fungus from cryogenic storage were directly mixed into nutrient broth (PDB potato dextrose broth). After placing a DMSO solution of test compound into a 96-well microtiter plate at an application rate of 200 ppm, the nutrient broth containing the fungal spores was added. The test plates were incubated at 24° C. and the inhibition of growth was determined photometrically 4-5 days after application.

CCn1c(-n2ncnc2N)nc2cncc(-c3ccc(Cl)cc3)c21 [Compound 35, 2-[7-(4-chlorophenyl)-1-ethylimidazo[4,5-c]pyridin-2-yl]-1,2,4-triazol-3-amine]
≥ 80%: inhibition at 20 ppm (Sclerotinia sclerotiorum) | pest or weed control at 200 ppm [1] | inhibition at 20 ppm [2] | inhibition at 20 ppm [3] | inhibition at 20 ppm [4] | pest or weed control at 200 ppm (Pyrenophora teres) | inhibition at 20 ppm [5]

CCn1c(-n2ncnc2N)nc2cncc(-c3cc(F)cc(F)c3)c21 [Compound 37, 2-[7-(3,5-difluorophenyl)-1-ethylimidazo[4,5-c]pyridin-2-yl]-1,2,4-triazol-3-amine]
≥ 80%: inhibition at 20 ppm [2] | inhibition at 20 ppm [3] | inhibition at 20 ppm [4] | pest or weed control at 200 ppm (Pyrenophora teres) | inhibition at 20 ppm [5] | pest or weed control at 200 ppm [6]

CCn1c(-n2ncnc2N)nc2cncc(-c3ccc(C)c(F)c3)c21 [Compound 41, 2-[1-ethyl-7-(3-fluoro-4-methylphenyl)imidazo[4,5-c]pyridin-2-yl]-1,2,4-triazol-3-amine]
≥ 80%: inhibition at 20 ppm (Sclerotinia sclerotiorum) | pest or weed control at 200 ppm [1] | inhibition at 20 ppm [3] | inhibition at 20 ppm [4] | pest or weed control at 200 ppm (Pyrenophora teres) | inhibition at 20 ppm [5]

CCn1c(-n2ncnc2N)nc2cncc(-c3ccc(OC)cc3OC)c21 [Compound 81, 2-[7-(2,4-dimethoxyphenyl)-1-ethylimidazo[4,5-c]pyridin-2-yl]-1,2,4-triazol-3-amine]
≥ 80%: pest or weed control at 200 ppm [1] | inhibition at 20 ppm [3] | inhibition at 20 ppm [4] | pest or weed control at 200 ppm (Pyrenophora teres) | inhibition at 20 ppm [5] | inhibition at 20 ppm (Gaeumannomyces graminis) | inhibition at 20 ppm [7]

CCn1c(-n2ncnc2N)nc2cncc(-c3cccc(OC)c3OC)c21 [Compound 83, 2-[7-(2,3-dimethoxyphenyl)-1-ethylimidazo[4,5-c]pyridin-2-yl]-1,2,4-triazol-3-amine]
≥ 80%: pest or weed control at 200 ppm [1] | inhibition at 20 ppm [3] | inhibition at 20 ppm [4] | pest or weed control at 200 ppm (Pyrenophora teres) | inhibition at 20 ppm [5] | inhibition at 20 ppm (Gaeumannomyces graminis) | pest or weed control at 200 ppm [6]

CCn1c(-n2ncnc2N)nc2cncc(-c3cc(C(F)(F)F)ccc3F)c21 [Compound 84, 2-[1-ethyl-7-[2-fluoro-5-(trifluoromethyl)phenyl]imidazo[4,5-c]pyridin-2-yl]-1,2,4-triazol-3-amine]
≥ 80%: inhibition at 20 ppm (Sclerotinia sclerotiorum) | inhibition at 20 ppm [3] | inhibition at 20 ppm [4] | pest or weed control at 200 ppm (Pyrenophora teres) | inhibition at 20 ppm [5] | inhibition at 20 ppm (Gaeumannomyces graminis)

CCn1c(-n2ncnc2N)nc2cncc(-c3cccc(Cl)c3Cl)c21 [Compound 87, 2-[7-(2,3-dichlorophenyl)-1-ethylimidazo[4,5-c]pyridin-2-yl]-1,2,4-triazol-3-amine]
≥ 80%: pest or weed control at 200 ppm [1] | inhibition at 20 ppm [3] | inhibition at 20 ppm [4] | pest or weed control at 200 ppm (Pyrenophora teres) | inhibition at 20 ppm [5] | inhibition at 20 ppm (Gaeumannomyces graminis) | inhibition at 20 ppm [7]

CCCn1c(-n2ncnc2N)nc2cncc(-c3ccccc3F)c21 [Compound 121, 2-[7-(2-fluorophenyl)-1-propylimidazo[4,5-c]pyridin-2-yl]-1,2,4-triazol-3-amine]
≥ 80%: pest or weed control at 200 ppm [1] | inhibition at 20 ppm [2] | inhibition at 20 ppm [3] | inhibition at 20 ppm [4] | pest or weed control at 200 ppm (Pyrenophora teres) | inhibition at 20 ppm [5] | inhibition at 20 ppm (Gaeumannomyces graminis) | pest or weed control at 200 ppm [6]

CCn1c(-n2ncnc2N)nc2cncc(/C(C)=N/OC/C=C/Cl)c21 [Compound 150]
≥ 80%: inhibition at 20 ppm (Sclerotinia sclerotiorum) | pest or weed control at 200 ppm [1] | inhibition at 20 ppm [2] | inhibition at 20 ppm [3] | inhibition at 20 ppm [4] | pest or weed control at 200 ppm (Pyrenophora teres) | inhibition at 20 ppm [5] | inhibition at 20 ppm [7]

CCCn1c(-n2ncnc2N)nc2cncc(/C(C)=N/OC/C=C\Cl)c21 [Compound 181]
≥ 80%: inhibition at 20 ppm (Sclerotinia sclerotiorum) | pest or weed control at 200 ppm [1] | inhibition at 20 ppm [3] | inhibition at 20 ppm [4] | pest or weed control at 200 ppm (Pyrenophora teres) | inhibition at 20 ppm [5] | inhibition at 20 ppm (Gaeumannomyces graminis) | inhibition at 20 ppm [7]

CCCn1c(-n2ncnc2N)nc2cncc(/C(C)=N/OC/C=C/Cl)c21 [Compound 183]
≥ 80%: pest or weed control at 200 ppm [1] | inhibition at 20 ppm [3] | inhibition at 20 ppm [4] | pest or weed control at 200 ppm (Pyrenophora teres) | inhibition at 20 ppm [5] | inhibition at 20 ppm (Gaeumannomyces graminis) | inhibition at 20 ppm [7]
